Results taken from US7135466B2 (Kirin Beer Kabushiki Kaisha, priority 1999, dated 2006).

Key:
PDGF-Ra = biological target: T1, PDGF-Ra (Homo sapiens, UniProt P16234); assay: Inhibitory activity against PDGF-Ra phosphorylation by PDGF-AA stimulation using G292; type: cell-based; conditions: for IC50: Pharmacological Test Example 1, > means inhibition at indicated concentration not more than 50%, < and << not less than 50%, read-out: PDGF (E) IC50
T1 construct: host or cells: G-292 human osteosarcoma cells
Summary of the method: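 G-292 human osteosarcoma cells in 0.1% FBS medium overnight, given compound for 1 hr at 37° C, then PDGF-AA 50 ng/ml for 5 min. Lysates captured on anti-phosphotyrosine (PY-20) plates and probed with anti-PDGF-Ra plus HRP secondary; absorbance at 450 nm.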

c-kit = biological target: T2, c-kit (Homo sapiens, UniProt P10721); assay: Inhibitory activity against c-kit autophosphorylation (MO7e cells, h-SCF); type: cell-based; conditions: for IC50: MO7e cells, h-SCF 50 ng/ml, read-out: c-kit IC50; for inhibition at 1 µM: Mo7e, figure in parentheses in −( ), at 1000 nM
T2 construct: MO7e (human megakaryocytic leukemia cell line) which had been arrested for 20 hr; endogenous in cells; host or cells: MO7e human megakaryocytic leukemia cell line
Summary of the method: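 Growth-arrested (20 hr) MO7e; cpd in DMSO, 1 hr; h-SCF 50 ng/ml, 5 min; lyse. ELISA: anti-pTyr (PY-20) capture, anti-c-kit 1° Ab, HRP anti-rabbit 2° Ab, A450.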

T1 sequence (P16234 24-1089): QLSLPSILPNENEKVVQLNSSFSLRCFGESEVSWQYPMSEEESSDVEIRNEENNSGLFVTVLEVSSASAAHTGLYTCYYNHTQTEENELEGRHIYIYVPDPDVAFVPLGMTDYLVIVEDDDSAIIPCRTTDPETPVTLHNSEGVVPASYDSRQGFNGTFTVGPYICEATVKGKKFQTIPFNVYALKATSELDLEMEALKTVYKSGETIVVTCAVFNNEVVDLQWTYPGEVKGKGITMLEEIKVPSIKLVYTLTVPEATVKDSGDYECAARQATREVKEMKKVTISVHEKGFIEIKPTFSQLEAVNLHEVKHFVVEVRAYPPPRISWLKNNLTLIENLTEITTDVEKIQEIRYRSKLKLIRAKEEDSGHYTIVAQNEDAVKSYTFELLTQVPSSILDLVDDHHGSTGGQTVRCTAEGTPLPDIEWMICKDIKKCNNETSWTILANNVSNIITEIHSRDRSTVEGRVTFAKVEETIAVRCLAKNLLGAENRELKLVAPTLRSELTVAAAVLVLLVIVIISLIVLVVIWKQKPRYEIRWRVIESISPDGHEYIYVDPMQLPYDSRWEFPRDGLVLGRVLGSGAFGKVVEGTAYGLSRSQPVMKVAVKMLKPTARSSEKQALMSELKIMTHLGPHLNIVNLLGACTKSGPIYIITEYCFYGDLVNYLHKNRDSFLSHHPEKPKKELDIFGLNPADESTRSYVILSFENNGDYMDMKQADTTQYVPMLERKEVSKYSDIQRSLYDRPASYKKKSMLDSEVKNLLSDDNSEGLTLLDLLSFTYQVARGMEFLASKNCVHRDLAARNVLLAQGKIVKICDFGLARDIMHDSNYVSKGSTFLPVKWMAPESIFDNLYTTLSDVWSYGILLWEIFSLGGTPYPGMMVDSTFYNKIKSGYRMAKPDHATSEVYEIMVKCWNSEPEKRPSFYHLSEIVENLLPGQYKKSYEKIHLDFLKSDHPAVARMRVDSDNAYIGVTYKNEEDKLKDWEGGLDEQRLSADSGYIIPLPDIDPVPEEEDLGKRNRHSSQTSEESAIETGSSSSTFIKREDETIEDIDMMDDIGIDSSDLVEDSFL
T2 sequence (P10721 26-976): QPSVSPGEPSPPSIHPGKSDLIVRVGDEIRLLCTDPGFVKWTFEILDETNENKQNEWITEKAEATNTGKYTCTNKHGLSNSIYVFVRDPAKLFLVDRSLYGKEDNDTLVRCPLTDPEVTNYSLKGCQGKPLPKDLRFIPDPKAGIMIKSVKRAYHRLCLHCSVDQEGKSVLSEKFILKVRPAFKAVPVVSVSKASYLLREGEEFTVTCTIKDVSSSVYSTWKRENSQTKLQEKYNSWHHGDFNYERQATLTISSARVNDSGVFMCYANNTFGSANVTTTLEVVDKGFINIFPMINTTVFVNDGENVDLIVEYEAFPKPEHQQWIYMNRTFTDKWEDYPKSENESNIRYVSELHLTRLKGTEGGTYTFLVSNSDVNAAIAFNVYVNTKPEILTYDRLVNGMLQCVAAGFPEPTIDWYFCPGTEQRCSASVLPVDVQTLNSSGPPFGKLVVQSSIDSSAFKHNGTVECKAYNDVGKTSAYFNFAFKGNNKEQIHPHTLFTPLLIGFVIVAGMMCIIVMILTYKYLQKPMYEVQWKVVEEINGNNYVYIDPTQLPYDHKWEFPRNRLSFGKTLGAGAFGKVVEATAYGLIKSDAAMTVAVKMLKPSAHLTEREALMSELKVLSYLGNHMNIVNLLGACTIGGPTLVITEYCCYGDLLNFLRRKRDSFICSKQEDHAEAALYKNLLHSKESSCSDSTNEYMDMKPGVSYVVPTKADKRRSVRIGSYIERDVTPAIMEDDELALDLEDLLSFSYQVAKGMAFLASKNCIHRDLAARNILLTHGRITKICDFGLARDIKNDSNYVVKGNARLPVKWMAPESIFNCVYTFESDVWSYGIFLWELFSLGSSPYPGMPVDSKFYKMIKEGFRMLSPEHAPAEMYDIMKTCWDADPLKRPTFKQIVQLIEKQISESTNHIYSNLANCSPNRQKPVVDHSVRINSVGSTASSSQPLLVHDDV

| IC50 (PDGF-Ra) [nM] | IC50 (c-kit) [nM] | inhibition at 0.1 µM (PDGF-Ra; G292, figure in parentheses in >100( ), at 100 nM, read-out: PDGF (E) inhibition (%) at 100 nM) [%] | SMILES | inhibition at 1 µM (c-kit) [%] |
| --- | --- | --- | --- | --- |
| < 10 | 41 |  | COc1cc2nccc(Oc3ccc(NC(=O)OCCc4ccccc4)cc3)c2cc1OC [Example 297, Phenethyl N-{4-[(6,7-dimethoxy-4-quinolyl)oxy]phenyl}carbamate] |  |
| < 10 | 119 |  | COc1cc2nccc(Oc3cc(C)c(NC(=O)OCCc4ccccc4)cc3C)c2cc1OC [Example 298, Phenethyl N-{4-[(6,7-dimethoxy-4-quinolyl)oxy]-2,5-dimethylphenyl}carbamate] |  |
| < 10 | 53 |  | COc1cc2nccc(Oc3ccc(NC(=O)OCCc4ccccc4)c(C)c3C)c2cc1OC [Example 299, Phenethyl N-{4-[(6,7-dimethoxy-4-quinolyl)oxy]-2,3-dimethylphenyl}carbamate] |  |
| 11 | 188 |  | COc1cc2nccc(Oc3ccc(NC(=O)OCCN4CCCCC4)cc3)c2cc1OC [Example 303, 2-Piperidinoethyl N-{4-[(6,7-dimethoxy-4-quinolyl)oxy]phenyl}carbamate] |  |
| 63 | 401 |  | COc1cc2nccc(Oc3cc(C)c(NC(=O)OCCN4CCCCC4)cc3C)c2cc1OC [Example 304, 2-Piperidinoethyl N-{4-[(6,7-dimethoxy-4-quinolyl)oxy]-2,5-dimethylphenyl}carbamate] |  |
| 11 | 221 |  | COc1cc2nccc(Oc3ccc(NC(=O)OCCN4CCCCC4)c(C)c3C)c2cc1OC [Example 305, 2-Piperidinoethyl N-{4-[(6,7-dimethoxy-4-quinolyl)oxy]-2,3-dimethylphenyl}carbamate] |  |
| 11 | 72 |  | COc1cc2nccc(Oc3ccc(NC(=O)OCCN4CCOCC4)cc3)c2cc1OC [Example 306, 2-Morpholinoethyl N-{4-[(6,7-dimethoxy-4-quinolyl)oxy]phenyl}carbamate] |  |
| > 100 | 165 | 49 | COc1cc2nccc(Oc3cc(C)c(NC(=O)OCCN4CCOCC4)cc3C)c2cc1OC [Example 307, 2-Morpholinoethyl N-{4-[(6,7-dimethoxy-4-quinolyl)oxy]-2,5-dimethylphenyl}carbamate] |  |
| 20 | 101 |  | COc1cc2nccc(Oc3ccc(NC(=O)OCCN4CCOCC4)c(C)c3C)c2cc1OC [Example 308, 2-Morpholinoethyl N-{4-[(6,7-dimethoxy-4-quinolyl)oxy]-2,3-dimethylphenyl}carbamate] |  |
| 10 | 285 |  | COc1cc2nccc(Oc3ccc(NC(=O)OCCCCCCN(C)C)cc3)c2cc1OC [Example 309, 6-(Dimethylamino)hexyl N-{4-[(6,7-dimethoxy-4-quinolyl)oxy]phenyl}carbamate] |  |
| 67 | 607 |  | COc1cc2nccc(Oc3cc(C)c(NC(=O)OCCCCCCN(C)C)cc3C)c2cc1OC [Example 310, 6-(Dimethylamino)hexyl N-{4-[(6,7-dimethoxy-4-quinolyl)oxy]-2,5-dimethylphenyl}carbamate] |  |
| < 10 | 329 |  | COc1cc2nccc(Oc3ccc(NC(=O)OCCCCCCN(C)C)c(C)c3C)c2cc1OC [Example 311, 6-(Dimethylamino)hexyl N-{4-[(6,7-dimethoxy-4-quinolyl)oxy]-2,3-dimethylphenyl}carbamate] |  |

| SMILES | IC50 (PDGF-Ra) [nM] | IC50 (c-kit) [nM] | inhibition at 0.1 µM (PDGF-Ra; G292, figure in parentheses in >100( ), at 100 nM, read-out: PDGF (E) inhibition (%) at 100 nM) [%] | inhibition at 1 µM (c-kit) [%] |
| --- | --- | --- | --- | --- |
| COc1cc2nccc(Oc3ccc(NC(=O)Oc4ccccc4C(C)(C)C)cc3)c2cc1OC [Example 300] | < 10 |  |  | 43 |
| COc1cc2nccc(Oc3cc(C)c(NC(=O)Oc4ccccc4C(C)(C)C)cc3C)c2cc1OC [Example 301, 2-(Tert-butyl)phenyl N-{4-[(6,7-dimethoxy-4-quinolyl)oxy]-2,5-dimethylphenyl}carbamate] | 43 |  |  | 39 |
| COc1cc2nccc(Oc3ccc(NC(=O)Oc4ccccc4C(C)(C)C)c(C)c3C)c2cc1OC [Example 302, 2-(Tert-butyl)phenyl N-{4-[(6,7-dimethoxy-4-quinolyl)oxy]-2,3-dimethylphenyl}carbamate] | 12 | 202 |  |  |
